Here are results for ten compounds from patent US20200010482A1, “INHIBITORS OF BETA SECRETASE” (Janssen Pharmaceutica NV, priority 2017, published 2020).

One assay addresses T1, BACE1 (Homo sapiens, UniProt P56817).
T1 construct: recombinant BACE1 protein in a final concentration of 0.04 μg/ml
Kind of assay: BACE1 biochemical FRET based assay. Particulars: recombinant BACE1 0.04 μg/ml, 20 μM substrate, 450 min, pH 5.0; for IC50: read-out: BIOCHEMICAL FRET BASED ASSAY pIC50 (converted). In short, it runs like this: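 Recombinant BACE1 (0.04 μg/ml final) incubated 450 min at room temperature with 20 μM Mca/Dnp-labelled 13-mer Swedish APP peptide in 50 mM citrate pH 5.0, 0.05% PEG. Fluorescence (ex 320/em 405 nm) at 450 min minus early baseline Tx; IC50 fitted from % Controlmin versus concentration.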

The test system of assay [1] is Abeta total produced and secreted by SKNBE2 cells expressing hAPP695. As to the kind of experiment: Cellular αLisa assay in SKNBE2 cells, Abeta total. The assay is classed as cell-based, human. Particulars: SKNBE2 cells expressing hAPP695, 18 hours incubation; for IC50: Homo sapiens, SKNBE2, 18 h, read-out: CELLULAR αLISA ASSAY IN SKNBE2 CELLS ABETA TOTAL pIC50 (converted). The method, then: In two αLisa assays the levels of Abeta total and Abeta 1-42 produced and secreted into the medium of human neuroblastoma SKNBE2 cells are quantified. The assay is based on the human neuroblastoma SKNBE2 expressing the wild type Amyloid Precursor Protein (hAPP695). The compounds are diluted and added to these cells, incubated for 18 hours and then measurements of Abeta 1-42 and Abeta total are taken. Abeta total and Abeta 1-42 are measured by sandwich αLisa. αLisa is a sandwich assay using biotinylated antibody AbN/25 attached to streptavidin coated beads and antibody Ab4G8 or cAb42/26 conjugated acceptor beads for the detection of Abeta total and Abeta 1-42 respectively. In the presence of Abeta total or Abeta 1-42, the beads come into close proximity. The excitation of the donor beads provokes the release of singlet oxygen molecules that trigger a cascade of energy transfer in the acceptor beads, resulting in light emission. Light emission is measured after 1 hour incubation (excitation at […] and emission at 615 nm).
A best-fit curve is fitted by a minimum sum of squares method to the plot of % Controlmin versus compound concentration. From this an IC50 value (inhibitory concentration causing 50% inhibition of activity) can be obtained. • LC=Median of the low control values=Low control: cells preincubated without compound, without biotinylated Ab in the αLisa • HC=Median of the High control values=High Control: cells preincubated without compound
% Effect=100−[(sample−LC)/(HC−LC)*100]
% Control=(sample/HC)*100
% Controlmin=(sample−LC)/(HC−LC)*100

The test system of assay [2] is Abeta 1-42 produced and secreted by SKNBE2 cells expressing hAPP695. Kind of assay: Cellular αLisa assay in SKNBE2 cells, Abeta 1-42. The class given is cell-based, human. Particulars: SKNBE2 cells expressing hAPP695, 18 hours incubation; for IC50: Homo sapiens, SKNBE2, 18 h, read-out: CELLULAR αLISA ASSAY IN SKNBE2 CELLS ABETA 42 PIC50 (converted). The essentials:
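Human neuroblastoma SKNBE2 cells expressing wild-type hAPP695 treated with compound for 18 h; secreted Abeta total or Abeta 1-42 in medium measured by sandwich αLisa (AbN/25 with Ab4G8 or cAb42/26), read after 1 h. IC50 from least-squares fit of % Controlmin, normalised to untreated and no-antibody controls.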

Another assay concerns the target T2, BACE2 (Homo sapiens, UniProt Q9Y5Z0).
T2 construct: recombinant BACE2 protein in a final concentration of 0.4 μg/ml
T2 sequence (Q9Y5Z0 63-518): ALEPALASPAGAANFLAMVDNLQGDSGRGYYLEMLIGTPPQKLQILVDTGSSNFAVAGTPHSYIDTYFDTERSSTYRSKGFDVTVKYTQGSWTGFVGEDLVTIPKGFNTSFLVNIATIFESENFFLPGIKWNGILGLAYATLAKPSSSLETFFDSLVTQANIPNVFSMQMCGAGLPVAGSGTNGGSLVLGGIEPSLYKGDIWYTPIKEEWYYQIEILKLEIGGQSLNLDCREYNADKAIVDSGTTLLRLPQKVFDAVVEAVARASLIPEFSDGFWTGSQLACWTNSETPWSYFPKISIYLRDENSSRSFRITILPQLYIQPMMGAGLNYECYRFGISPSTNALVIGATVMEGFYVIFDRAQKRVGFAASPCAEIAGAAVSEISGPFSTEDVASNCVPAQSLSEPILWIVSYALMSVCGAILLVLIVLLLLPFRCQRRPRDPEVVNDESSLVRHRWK
As to the kind of experiment: BACE2 biochemical FRET based assay. Particulars: recombinant BACE2 0.4 μg/ml, 10 μM substrate, 450 min, pH 5.0; for IC50: read-out: BIOCHEMICAL FRET BASED ASSAY pIC50 (converted). In short, it runs like this: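 Recombinant enzyme (0.4 μg/ml final) incubated 450 min at room temperature with 10 μM Mca/Dnp-quenched Swedish-mutant APP peptide in 50 mM citrate pH 5.0, 0.05% PEG, no DMSO. Fluorescence (ex 320/em 405 nm) change from T0 to T450 normalised to no-enzyme and enzyme controls; IC50 from least-squares curve fit.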

T1 sequence (P56817 46-501): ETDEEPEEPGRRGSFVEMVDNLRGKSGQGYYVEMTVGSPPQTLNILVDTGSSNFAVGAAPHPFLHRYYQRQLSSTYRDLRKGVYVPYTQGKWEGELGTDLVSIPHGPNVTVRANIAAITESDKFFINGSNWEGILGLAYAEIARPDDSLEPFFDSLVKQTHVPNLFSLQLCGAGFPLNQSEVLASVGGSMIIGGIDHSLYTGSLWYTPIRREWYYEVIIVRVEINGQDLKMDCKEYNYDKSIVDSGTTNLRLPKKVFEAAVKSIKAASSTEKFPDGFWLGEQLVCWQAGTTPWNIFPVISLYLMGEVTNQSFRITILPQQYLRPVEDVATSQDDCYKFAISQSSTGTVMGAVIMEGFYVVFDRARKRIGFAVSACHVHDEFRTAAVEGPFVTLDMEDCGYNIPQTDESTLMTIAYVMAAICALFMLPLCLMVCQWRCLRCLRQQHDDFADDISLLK

For `COc1ncc(-c2ccn[nH]2)c2c1C[C@]1(c3ccc(F)cc3F)N=C(N)SC[C@@H]1C2` (racemic) [Compound 29], the IC50 at BACE1 is 35.5 nM; in assay [1], 12.6 nM; in assay [2], 13.5 nM; on BACE2, 35.5 nM.

For `COc1ncc(-c2cnccc2C)c2c1C[C@]1(c3cc(-c4cncnc4)ccc3F)N=C(N)SC[C@@H]1C2` (mixture of isomers) [Compound 39], the “BIOCHEMICAL FRET BASED ASSAY pIC50” value was determined as 8.3 at BACE1 and 5.78 on BACE2. Also, the “CELLULAR αLISA ASSAY IN SKNBE2 CELLS ABETA TOTAL pIC50” value in assay [1] is 8.71. For the same compound, the “CELLULAR αLISA ASSAY IN SKNBE2 CELLS ABETA 42 PIC50” value in assay [2] is recorded as 8.78.

In the case of `COc1nccc2c1C[C@]1(c3cc(O)ccc3F)N=C(N)SC[C@@H]1C2` [Compound 36], the IC50 at BACE1 was 138 nM; in assay [1], 15.8 nM; in assay [2] it was 16.6 nM; at BACE2, 45.7 nM.

`COc1nccc2c1C[C@]1(c3ccc(F)cc3F)N=C(N)SC[C@@H]1C2` [Compound 35]: the IC50 is 34.7 nM on BACE1, 12 nM in assay [1], 13.8 nM in assay [2] and 44.7 nM on BACE2.

On to `COc1ncc(-c2cnccc2C)c2c1CC1(c3ccc(Cl)cc3F)N=C(N)SCC1C2` (single isomer, unassigned) [Compound 200], for which the IC50 on BACE1 was 17.8 nM; on BACE2, 437 nM. Besides, the “CELLULAR αLISA ASSAY IN SKNBE2 CELLS ABETA TOTAL pIC50” value in assay [1] worked out at 8.05. In assay [2], the “CELLULAR αLISA ASSAY IN SKNBE2 CELLS ABETA 42 PIC50” value worked out at 8.09.

With `Cn1ccc2c(c1=O)C[C@]1(c3ccccc3F)N=C(N)SC[C@@H]1C2` (racemic) [Compound 34], the IC50 on BACE1 was 6030 nM; in assay [1], 1510 nM; in assay [2], 1410 nM; at BACE2 it was 6030 nM.

For `COc1ncc(C#N)c2c1CC1(c3ccc(F)cc3F)N=C(N)SCC1C2` (racemic) [Compound 23], the IC50 was 75.9 nM on BACE1, 29.5 nM in assay [1], 26.3 nM in assay [2] and 155 nM at BACE2.

As to `COc1ncc(Oc2ccccn2)c2c1C[C@]1(c3ccc(F)cc3F)N=C(N)SC[C@@H]1C2` [Compound 135], the “BIOCHEMICAL FRET BASED ASSAY pIC50” value stood at 7.6 on BACE1 and 7.55 on BACE2. Also, the “CELLULAR αLISA ASSAY IN SKNBE2 CELLS ABETA TOTAL pIC50” value in assay [1] is 7.62. In assay [2], the “CELLULAR αLISA ASSAY IN SKNBE2 CELLS ABETA 42 PIC50” value was found to be 7.6.

As for `COc1ncc(-c2ccccc2Cl)c2c1C[C@]1(c3ccc(F)cc3F)N=C(N)SC[C@@H]1C2` [Compound 52], the “BIOCHEMICAL FRET BASED ASSAY pIC50” value at BACE1 was determined as 8.38; on BACE2 it was 7.35. Moreover, the “CELLULAR αLISA ASSAY IN SKNBE2 CELLS ABETA TOTAL pIC50” value in assay [1] turned out to be 7.88. Moreover, in assay [2], the “CELLULAR αLISA ASSAY IN SKNBE2 CELLS ABETA 42 PIC50” value worked out at 7.96.

Consider `COc1ncc(Br)c2c1C[C@]1(c3ccccc3F)N=C(N)SC[C@@H]1C2` (racemic) [Compound 16], for which the IC50 at BACE1 is 55 nM; in assay [1], 138 nM; in assay [2], 138 nM; at BACE2, 77.6 nM.
